Reference: patent EP4656179A1, “COMPOSITION CONTAINING STREPTOCOCCUS SP. STRAIN FOR PREVENTION, ALLEVIATION, OR TREATMENT OF SKIN DISEASES” (Cosmax, Inc., priority 2023, dated 2024)

Assays:
Format in all cases: cell-based, human
Conditions in all cases: HaCaT cells, IFN-γ 10 ng/mL; 1, 10, and 100 ppm; 24 hours; GAPDH as standard
CCL17 = test: Marker gene expression in IFN-γ atopic dermatitis cell model (HaCaT), real-time PCR: CCL17
Procedure: (§1) To verify the effect of the Cyclo(Gly-Pro) of alleviating atopic dermatitis, an in vitro efficacy evaluation was conducted.
(§2) First, human keratinocytes, HaCaT cells, were purchased from the American Type Culture Collection (ATCC; Manassas, VA, USA) and cultured in DMEM (HyClone, Logan, UT, USA) supplemented with 10 % FBS (HyClone) and 1 % antibiotic-antimycotic solution (Welgene, Daegu, Korea). The cells were maintained at 37 °C in a 5 % CO2 incubator. After isolating the cells using trypsinization, 4 x 10^5 cells were added to each well of a 6-well plate. After 1 day of cell attachment, the culture was replaced with a serum-free medium and treated with IFN-γ (Sigma Aldrich, St. St. Louis, MO, USA) at a concentration of 10 ng/mL to induce an environment similar to atopic dermatitis. As a positive control group, 1 µM dexamethasone (Sigma Aldrich) was used. As experimental groups, the cells were treated with Cyclo(Gly-Pro) (Biosynth Ltd, Berkshire, UK) at concentrations of 1, 10, and 100 ppm. […]
(§3) The cDNA amplification was performed by 40 cycles of amplification, wherein each cycle has the following conditions: 50 °C for 2 minutes, 95 °C for 10 minutes, 40 cycles of 95°C for 10 seconds, and 60°C for 1 minute. GAPDH was used as an ISTD material, and the mRNA expression levels were expressed as relative values compared to the negative control group. […]

CCL22 = test: Marker gene expression in IFN-γ atopic dermatitis cell model (HaCaT), real-time PCR: CCL22
Procedure: as §1, §2, §3

IL-13 = test: Marker gene expression in IFN-γ atopic dermatitis cell model (HaCaT), real-time PCR: IL-13
Procedure: as §1, §2, §3

IL-22 = test: Marker gene expression in IFN-γ atopic dermatitis cell model (HaCaT), real-time PCR: IL-22
Procedure: as §1, §2, §3

sIL-2R = test: Marker gene expression in IFN-γ atopic dermatitis cell model (HaCaT), real-time PCR: sIL-2R
Procedure: as §1, §2, §3

IL-31 = test: Marker gene expression in IFN-γ atopic dermatitis cell model (HaCaT), real-time PCR: IL-31
Procedure: as §1, §2, §3

filaggrin (FLG) = test: Marker gene expression in IFN-γ atopic dermatitis cell model (HaCaT), real-time PCR: filaggrin
Procedure: as §1, §2, §3

## O=C1NCC(=O)N2CCCC12 (stereo not shown) [Cyclo(Gly-Pro), hexahydropyrrolo[1,2-a]pyrazine-1,4-dione]
CCL17
  relative expression levels of CCL17: decreased
CCL22
  relative expression levels of CCL22: decreased
IL-13
  relative expression levels of IL-13: decreased
IL-22
  relative expression levels of IL-22: decreased
sIL-2R
  relative expression levels of sIL-2R: decreased
IL-31
  relative expression levels of IL-31: decreased
Filaggrin (FLG)
  relative expression levels of filaggrin (FLG): increased
